Assay results reported in patent publication US11497752B2, “Compounds and uses thereof” (Foghorn Therapeutics Inc., priority 2018, dated 2022).

Assays:
BRM = BRM (Homo sapiens, UniProt P51531); experiment: ATPase catalytic activity of BRM (ADP-Glo in vitro biochemical assay)
BRG-1 = BRG-1 (Homo sapiens, UniProt P51532); experiment: ATPase catalytic activity of BRG-1 (ADP-Glo in vitro biochemical assay)
Chain of BRG-1 (P51532 whole entry): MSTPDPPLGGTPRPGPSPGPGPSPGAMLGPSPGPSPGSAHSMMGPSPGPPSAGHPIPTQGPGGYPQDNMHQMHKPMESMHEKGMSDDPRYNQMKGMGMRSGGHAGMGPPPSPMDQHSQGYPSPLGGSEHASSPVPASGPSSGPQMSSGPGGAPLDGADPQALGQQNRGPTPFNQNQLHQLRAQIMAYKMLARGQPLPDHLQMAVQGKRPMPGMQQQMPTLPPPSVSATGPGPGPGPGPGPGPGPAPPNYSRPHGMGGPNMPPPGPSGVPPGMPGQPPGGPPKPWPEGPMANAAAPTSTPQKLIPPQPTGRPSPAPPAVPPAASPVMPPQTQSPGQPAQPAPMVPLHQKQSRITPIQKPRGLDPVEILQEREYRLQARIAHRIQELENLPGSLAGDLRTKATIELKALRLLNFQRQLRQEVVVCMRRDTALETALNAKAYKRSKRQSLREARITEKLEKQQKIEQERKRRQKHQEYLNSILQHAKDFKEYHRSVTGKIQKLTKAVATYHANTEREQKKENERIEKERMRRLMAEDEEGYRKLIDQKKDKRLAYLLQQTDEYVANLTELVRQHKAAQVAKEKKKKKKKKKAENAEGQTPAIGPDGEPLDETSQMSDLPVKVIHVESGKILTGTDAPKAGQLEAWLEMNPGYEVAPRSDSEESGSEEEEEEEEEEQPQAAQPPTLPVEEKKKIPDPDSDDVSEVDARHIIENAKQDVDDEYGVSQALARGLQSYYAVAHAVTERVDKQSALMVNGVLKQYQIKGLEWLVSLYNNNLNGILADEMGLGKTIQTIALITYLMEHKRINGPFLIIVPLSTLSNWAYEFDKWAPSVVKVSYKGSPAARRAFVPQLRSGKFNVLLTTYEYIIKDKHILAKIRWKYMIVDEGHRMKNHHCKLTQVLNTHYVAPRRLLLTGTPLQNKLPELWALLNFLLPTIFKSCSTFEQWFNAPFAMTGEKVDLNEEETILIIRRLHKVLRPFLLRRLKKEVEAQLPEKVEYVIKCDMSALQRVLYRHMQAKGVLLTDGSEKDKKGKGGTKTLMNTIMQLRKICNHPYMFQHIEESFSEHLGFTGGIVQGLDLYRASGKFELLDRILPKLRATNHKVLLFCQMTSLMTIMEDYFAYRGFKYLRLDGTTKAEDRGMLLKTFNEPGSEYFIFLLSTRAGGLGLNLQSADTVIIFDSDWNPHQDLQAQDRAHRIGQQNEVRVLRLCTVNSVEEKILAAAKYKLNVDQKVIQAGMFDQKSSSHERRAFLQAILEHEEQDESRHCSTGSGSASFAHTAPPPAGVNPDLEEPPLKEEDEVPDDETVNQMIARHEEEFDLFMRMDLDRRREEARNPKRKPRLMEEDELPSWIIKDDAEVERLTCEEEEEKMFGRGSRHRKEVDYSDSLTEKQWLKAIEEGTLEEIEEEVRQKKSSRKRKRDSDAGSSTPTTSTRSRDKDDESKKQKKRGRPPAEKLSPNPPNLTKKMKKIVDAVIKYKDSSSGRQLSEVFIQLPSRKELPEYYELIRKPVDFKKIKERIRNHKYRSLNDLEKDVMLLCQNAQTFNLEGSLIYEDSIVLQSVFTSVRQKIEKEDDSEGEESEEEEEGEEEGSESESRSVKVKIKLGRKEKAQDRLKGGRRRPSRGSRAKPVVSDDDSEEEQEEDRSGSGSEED

Chain of BRM (P51531 whole entry): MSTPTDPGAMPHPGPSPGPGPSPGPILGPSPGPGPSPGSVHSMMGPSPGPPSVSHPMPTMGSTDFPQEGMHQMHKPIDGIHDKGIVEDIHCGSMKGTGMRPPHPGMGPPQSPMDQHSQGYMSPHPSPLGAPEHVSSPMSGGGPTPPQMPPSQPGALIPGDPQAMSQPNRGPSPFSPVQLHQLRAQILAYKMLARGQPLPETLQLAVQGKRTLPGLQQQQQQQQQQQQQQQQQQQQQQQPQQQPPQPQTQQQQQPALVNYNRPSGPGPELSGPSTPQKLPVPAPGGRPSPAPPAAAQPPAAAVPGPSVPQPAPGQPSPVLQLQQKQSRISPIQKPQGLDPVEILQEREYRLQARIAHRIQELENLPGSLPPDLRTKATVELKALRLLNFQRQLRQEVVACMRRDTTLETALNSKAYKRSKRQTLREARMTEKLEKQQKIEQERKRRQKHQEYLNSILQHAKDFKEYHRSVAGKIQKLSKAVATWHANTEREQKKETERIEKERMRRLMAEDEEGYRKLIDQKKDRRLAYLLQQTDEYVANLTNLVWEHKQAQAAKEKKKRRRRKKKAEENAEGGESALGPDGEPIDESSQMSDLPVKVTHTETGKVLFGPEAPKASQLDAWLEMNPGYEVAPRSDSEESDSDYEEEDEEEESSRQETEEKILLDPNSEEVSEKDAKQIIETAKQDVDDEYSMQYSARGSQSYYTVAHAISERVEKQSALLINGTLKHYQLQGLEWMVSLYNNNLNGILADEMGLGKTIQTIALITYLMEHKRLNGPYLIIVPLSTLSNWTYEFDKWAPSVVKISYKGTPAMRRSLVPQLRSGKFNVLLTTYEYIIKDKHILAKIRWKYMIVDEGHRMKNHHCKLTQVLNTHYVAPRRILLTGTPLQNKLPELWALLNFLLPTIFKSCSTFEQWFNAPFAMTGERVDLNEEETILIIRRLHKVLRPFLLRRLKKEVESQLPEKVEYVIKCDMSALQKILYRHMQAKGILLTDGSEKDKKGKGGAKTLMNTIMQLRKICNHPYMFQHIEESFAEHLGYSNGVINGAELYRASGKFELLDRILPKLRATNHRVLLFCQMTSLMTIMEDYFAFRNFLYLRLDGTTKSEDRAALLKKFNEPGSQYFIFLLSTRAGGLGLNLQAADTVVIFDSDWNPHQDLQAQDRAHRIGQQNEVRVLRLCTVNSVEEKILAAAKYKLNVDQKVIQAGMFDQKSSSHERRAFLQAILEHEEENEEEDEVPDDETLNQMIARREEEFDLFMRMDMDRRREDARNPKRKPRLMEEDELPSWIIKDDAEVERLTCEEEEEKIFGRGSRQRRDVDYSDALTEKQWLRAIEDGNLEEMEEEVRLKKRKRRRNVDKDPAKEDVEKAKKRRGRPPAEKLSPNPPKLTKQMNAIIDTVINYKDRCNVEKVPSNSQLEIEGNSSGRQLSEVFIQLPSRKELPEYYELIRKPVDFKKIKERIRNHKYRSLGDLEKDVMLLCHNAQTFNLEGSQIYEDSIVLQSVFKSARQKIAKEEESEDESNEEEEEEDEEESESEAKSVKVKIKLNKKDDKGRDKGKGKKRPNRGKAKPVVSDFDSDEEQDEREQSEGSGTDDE

Structure (SMILES)	IC50 (BRM)	BRM Max % Inhibition (BRM; Table 6)	IC50 (BRG-1)	BRG1 Max % Inhibition (BRG-1; Table 6)	BRM Max % Inhibition (BRM; Table 5)	BRG1 Max % Inhibition (BRG-1; Table 5)
Cc1cnccc1-c1cccc(-c2csc(NC(=O)CNC(=O)c3ccc(N)cc3)n2)c1 [Compound 194, 4-amino-N-[2-[[4-[3-(3-methyl-4-pyridyl)phenyl]thiazol-2-yl]amino]-2-oxo-ethyl]benzamide]	100 to 1000 nM	>90%	100 to 1000 nM	>80%		
Cn1ncc2ccc(-c3csc(NC(=O)CNC(=O)c4ccc(N)cc4)n3)cc2c1=O [Compound 150, 4-amino-N-(2-((4-(3-methyl-4-oxo-3,4-dihydrophthalazin-6-yl)thiazol-2-yl)amino)-2-oxoethyl)benzamide]	< 100 nM	>95%	< 100 nM	>90%		
CSCC[C@H](NC(=O)c1ccccc1)C(=O)Nc1nc(-c2cccc(-c3ccncc3)c2)cs1 [Compound 97, (S)-N-(4-(methylthio)-1-oxo-1-((4-(3-(pyridin-4-yl)phenyl)thiazol-2-yl)amino)butan-2-yl)benzamide]	100 to 1000 nM	>70%	100 to 1000 nM	>70%		
COc1ccc(-c2cccc(-c3csc(NC(=O)CNC(=O)c4ccc(N)cc4)n3)c2)cn1 [Compound 127, 4-amino-N-(2-((4-(3-(6-methoxypyridin-3-yl)phenyl)thiazol-2-yl)amino)-2-oxoethyl)benzamide]	100 to 1000 nM	>90%	100 to 1000 nM	>80%		
Nc1ccc(C(=O)NCC(=O)Nc2nc(-c3cccc(-c4ccn(C5CCOCC5)n4)c3)cs2)cc1 [Compound 162, 4-amino-N-(2-oxo-2-((4-(3-(1-(tetrahydro-2H-pyran-4-yl)-1H-pyrazol-3-yl)phenyl)thiazol-2-yl)amino)ethyl)benzamide]	< 100 nM	>95%	< 100 nM	>95%		
Nc1cnc(C(=O)NCC(=O)Nc2nc(-c3cccc(-c4ccncc4)c3)cs2)nc1 [Compound 193, 5-amino-N-[2-oxo-2-[[4-[3-(4-pyridyl)phenyl]thiazol-2-yl]amino]ethyl]pyrimidine-2-carboxamide]	100 to 1000 nM	>80%	100 to 1000 nM	>90%		
CC(C)(N)Cn1ccc(-c2cccc(-c3csc(NC(=O)CNC(=O)c4ccc(N)cc4)n3)c2)n1 [Compound 241, 4-amino-N-[2-[[4-[3-[1-(2-amino-2-methyl-propyl)pyrazol-3-yl]phenyl]thiazol-2-yl]amino]-2-oxo-ethyl]benzamide]	100 to 1000 nM	>90%	100 to 1000 nM	>90%		
Nc1ccc(C(=O)NCC(=O)Nc2nc(-c3cccc(-c4ccnc(C5(C(=O)O)CC5)c4)c3)cs2)cc1 [Compound 219, 1-[4-[3-[2-[[2-[(4-aminobenzoyl)amino]acetyl]amino]thiazol-4-yl]phenyl]-2-pyridyl]cyclopropanecarboxylic acid]	< 100 nM	>95%	< 100 nM	>95%		
CNC(=O)C(C)(C)n1ccc(-c2cccc(-c3csc(NC(=O)CNC(=O)c4ccc(N)cc4)n3)c2)n1 [Compound 213, 4-amino-N-[2-[[4-[3-[1-[1,1-dimethyl-2-(methylamino)-2-oxo-ethyl]pyrazol-3-yl]phenyl]thiazol-2-yl]amino]-2-oxo-ethyl]benzamide]	< 100 nM	>95%	< 100 nM	>95%		
COC(=O)N1CCC=C(c2csc(NC(=O)CNC(=O)c3ccc(N)cc3)n2)C1 [Compound 110, methyl 3-(2-(2-(4-aminobenzamido)acetamido)thiazol-4-yl)-5,6-dihydropyridine-1(2H)-carboxylate]	100 to 1000 nM	>80%	1000 to 10000 nM	>80%		
CSCC[C@H](NC(=O)c1cccc(CO)c1)C(=O)Nc1nc(-c2ccccc2)cs1 [Compound 84, 3-(hydroxymethyl)-N-[(1S)-3-methylsulfanyl-1-[(4-phenylthiazol-2-yl)carbamoyl]propyl]benzamide]	> 10000 nM		> 10000 nM		>80%	>80%
COc1ccc(C(=O)N[C@@H](CCSC)C(=O)Nc2nc(-c3ccccc3)cs2)cc1S(C)(=O)=O [Compound 20, 4-methoxy-N-[(1S)-3-methylsulfanyl-1-[(4-phenylthiazol-2-yl)carbamoyl]propyl]-3-methylsulfonyl-benzamide]	> 10000 nM		> 10000 nM		>70%	>60%
CSCC[C@H](NC(=O)c1ccc(CN)cc1)C(=O)Nc1nc(-c2ccccc2)cs1 [Compound 57, 4-(aminomethyl)-N-[3-methylsulfanyl-1-[(4-phenylthiazol-2-yl)carbamoyl]propyl]benzamide]	> 10000 nM		> 10000 nM		>90%	>90%
Nc1ccc(C(=O)NCC(=O)Nc2nc(-c3cccc(-c4ccc(O)cc4)c3)cs2)cc1 [Compound 139, 4-amino-N-(2-((4-(4′-hydroxy-[1,1′-biphenyl]-3-yl)thiazol-2-yl)amino)-2-oxoethyl)benzamide]	< 100 nM	>95%	< 100 nM	>95%		
CNC(=O)Cc1cc(-c2cccc(-c3csc(NC(=O)CNC(=O)c4ccc(N)cc4)n3)c2)ccn1 [Compound 205, 4-amino-N-[2-[[4-[3-[2-[2-(methylamino)-2-oxo-ethyl]-4-pyridyl]phenyl]thiazol-2-yl]amino]-2-oxo-ethyl]benzamide]	< 100 nM	>95%	< 100 nM	>95%		
CS(=O)(=O)c1cccc(C(=O)NCC(=O)Nc2nc(-c3cccc(-c4ccncn4)c3)cs2)c1 [Compound 90, 3-(methylsulfonyl)-N-(2-oxo-2-((4-(3-(pyrimidin-4-yl)phenyl)thiazol-2-yl)amino)ethyl)benzamide]	< 100 nM	>70%	< 100 nM	>50%		
Nc1ccc(C(=O)NCC(=O)Nc2nc(-c3cccc(-c4cccc(O)c4)c3)cs2)cc1 [Compound 141, 4-amino-N-(2-((4-(3′-hydroxy-[1,1′-biphenyl]-3-yl)thiazol-2-yl)amino)-2-oxoethyl)benzamide]	< 100 nM	>95%	100 to 1000 nM	>95%		
COC(=O)N1CCC[C@H](c2csc(NC(=O)CNC(=O)c3ccc(N)cc3)n2)C1 [Compound 122, (S)-methyl 3-(2-(2-(4-aminobenzamido)acetamido)thiazol-4-yl)piperidine-1-carboxylate]	100 to 1000 nM	>95%	1000 to 10000 nM	>90%		
CC(C)(O)Cn1ccc(-c2cccc(-c3csc(NC(=O)CNC(=O)c4ccc(N)cc4)n3)c2)n1 [Compound 229, 4-amino-N-[2-[[4-[3-[1-(2-hydroxy-2-methyl-propyl)pyrazol-3-yl]phenyl]thiazol-2-yl]amino]-2-oxo-ethyl]benzamide]	100 to 1000 nM	>95%	100 to 1000 nM	>95%		
Nc1ccc(C(=O)NCC(=O)Nc2nc(C3CCCN(c4cccnc4)C3)cs2)cc1 (centres unmarked) [Compound 173, 4-amino-N-(2-oxo-2-((4-(1-(pyridin-3-yl)piperidin-3-yl)thiazol-2-yl)amino)ethyl)benzamide]	100 to 1000 nM	>90%	100 to 1000 nM	>90%		
CSCC[C@H](NC(=O)c1cccc(O)c1)C(=O)Nc1nc(-c2ccccc2)cs1 [Compound 59, (S)-3-hydroxy-N-(4-(methylthio)-1-oxo-1-((4-phenylthiazol-2-yl)amino)butan-2-yl)benzamide]	> 10000 nM		> 10000 nM		>90%	>90%
Nc1ccc(C(=O)NCC(=O)Nc2nc(-c3cccc(-c4cccc(C(=O)O)c4)c3)cs2)cc1 [Compound 136, 3′-(2-(2-(4-aminobenzamido)acetamido)thiazol-4-yl)-[1,1′-biphenyl]-3-carboxylic acid]	100 to 1000 nM	>95%	100 to 1000 nM	>95%		
CN(C)CC[C@H](NC(=O)c1ccc(N)cc1)C(=O)Nc1nc(-c2cccc(-c3ccncc3)c2)cs1 [Compound 233, (S)-4-amino-N-(4-(dimethylamino)-1-oxo-1-((4-(3-(pyridin-4-yl)phenyl)thiazol-2-yl)amino)butan-2-yl)benzamide]	100 to 1000 nM	>90%	100 to 1000 nM	>80%		
Cc1cccc(C)c1-c1csc(NC(=O)CNC(=O)c2cccc(S(=O)(=O)N(C)C)c2)n1 [Compound 29, N-[2-[[4-(2,6-dimethylphenyl)thiazol-2-yl]amino]-2-oxo-ethyl]-3-(dimethylsulfamoyl)benzamide]	> 10000 nM		> 10000 nM		>50%	>60%
COC(=O)C(C)(C)c1cc(-c2cccc(-c3csc(NC(=O)CNC(=O)c4ccc(N)cc4)n3)c2)ccn1 [Compound 182, methyl 2-(4-(3-(2-(2-(4-aminobenzamido)acetamido)thiazol-4-yl)phenyl)pyridin-2-yl)-2-methylpropanoate]	< 100 nM	>95%	100 to 1000 nM	>90%		
Nc1ccc(C(=O)NCC(=O)Nc2nc(-c3cccc(N4CCOCC4)c3)cs2)cc1 [Compound 179, 4-amino-N-(2-((4-(3-morpholinophenyl)thiazol-2-yl)amino)-2-oxoethyl)benzamide]	100 to 1000 nM	>90%	100 to 1000 nM	>95%		
